Test results reported in ChEMBL document CHEMBL3045806, “Antimicrobial, analgesic, DPPH scavenging activities and molecular docking study of some 1,3,5-triaryl-2-pyrazolines” (2012).
≈ marks a conversion by molar mass, not a printed value.

Assays:
Assay type in all cases: functional
[1] = tested on: Klebsiella pneumoniae; assay: Antimicrobial activity against Klebsiella pneumoniae at 40 ug/ml after 24 hr by agar well diffusion method; settings: read-out: IZ
[2] = tested on: Pseudomonas aeruginosa; assay: Antimicrobial activity against Pseudomonas aeruginosa at 40 ug/ml after 24 hr by agar well diffusion method; settings: read-out: IZ
[3] = tested on: Bacillus subtilis; assay: Antimicrobial activity against Bacillus subtilis at 40 ug/ml after 24 hr by agar well diffusion method; settings: read-out: IZ
[4] = tested on: Streptococcus pyogenes; assay: Antimicrobial activity against Streptococcus pyogenes at 40 ug/ml after 24 hr by agar well diffusion method; settings: read-out: IZ
[5] = Antioxidant activity assessed as DPPH scavenging activity at 10 ug/ml after 30 min by UV-visible spectrophotometry
[6] = tested on: Pseudomonas aeruginosa; assay: Antimicrobial activity against Pseudomonas aeruginosa after 24 hr by micro dilution method
[7] = tested on: Aspergillus niger; assay: Antimicrobial activity against Aspergillus niger at 40 ug/ml after 72 hr by agar well diffusion method; settings: read-out: IZ
[8] = tested on: Candida albicans; assay: Antimicrobial activity against Candida albicans at 40 ug/ml after 72 hr by agar well diffusion method; settings: read-out: IZ
[9] = tested on: Streptococcus pyogenes; assay: Antimicrobial activity against Streptococcus pyogenes after 24 hr by micro dilution method
[10] = tested on: Candida albicans; assay: Antimicrobial activity against Candida albicans after 24 hr by micro dilution method
[11] = tested on: Bacillus subtilis; assay: Antimicrobial activity against Bacillus subtilis after 24 hr by micro dilution method
[12] = tested on: Klebsiella pneumoniae; assay: Antimicrobial activity against Klebsiella pneumoniae after 24 hr by micro dilution method
[13] = tested on: Mus musculus; assay: Analgesic activity in Mus musculus Swiss albino (mouse) assessed as protection against acetic acid-induced writhing at 100 mg/kg, po administered 1 hr prior challenge measured after 5 min of challenge for 20 min
[14] = tested on: Aspergillus niger; assay: Antimicrobial activity against Aspergillus niger after 24 hr by micro dilution method

| Structure (SMILES) | zone of inhibition at 40 µg/mL [1] | zone of inhibition at 40 µg/mL [2] | zone of inhibition at 40 µg/mL [3] | zone of inhibition at 40 µg/mL [4] | Activity [5] | MIC [6] | zone of inhibition at 40 µg/mL [7] | zone of inhibition at 40 µg/mL [8] | MIC [9] | MIC [10] | MIC [11] | MIC [12] | Activity [13] | MIC [14] |
| --- | --- | --- | --- | --- | --- | --- | --- | --- | --- | --- | --- | --- | --- | --- |
| O=C(O)c1cn(C2CC2)c2cc(N3CCNCC3)c(F)cc2c1=O [CIPROFLOXACIN] | 24 mm | 24 mm | 24 mm | 24 mm |  |  |  |  |  |  |  |  |  |  |
| O=C1O[C@H]([C@@H](O)CO)C(O)=C1O |  |  |  |  | 69.2% |  |  |  |  |  |  |  |  |  |
| Brc1ccc(C2=NN(c3ccccc3)C(c3ccc(Br)cc3)C2)cc1 (stereo unspecified) | 21 mm | 22 mm | 23 mm | 21 mm | 40.3% | 30 µg/mL (≈ 65.8 µM) | 20 mm | 20 mm | 40 µg/mL (≈ 87.7 µM) | 20 µg/mL (≈ 43.8 µM) | 40 µg/mL (≈ 87.7 µM) | 40 µg/mL (≈ 87.7 µM) | 53.75% | 40 µg/mL (≈ 87.7 µM) |
| COc1ccc(C2=NN(c3ccccc3)C(c3ccc(OC)cc3)C2)cc1 (stereo unspecified) | 22 mm | 24 mm | 21 mm | 23 mm | 39.6% | 30 µg/mL (≈ 83.7 µM) | 21 mm | 20 mm | 40 µg/mL (≈ 112 µM) | 40 µg/mL (≈ 112 µM) | 40 µg/mL (≈ 112 µM) | 30 µg/mL (≈ 83.7 µM) | 58.74% | 30 µg/mL (≈ 83.7 µM) |
| CC(=O)Oc1ccccc1C(=O)O [ASPIRIN] |  |  |  |  |  |  |  |  |  |  |  |  | 58.25% |  |
| Clc1ccc(C2=NN(c3ccccc3)C(c3ccc(Cl)cc3)C2)cc1 (stereo unspecified) | 20 mm | 21 mm | 22 mm | 24 mm | 31.8% | 30 µg/mL (≈ 81.7 µM) | 22 mm | 21 mm | 30 µg/mL (≈ 81.7 µM) | 30 µg/mL (≈ 81.7 µM) | 30 µg/mL (≈ 81.7 µM) | 30 µg/mL (≈ 81.7 µM) | 50% | 30 µg/mL (≈ 81.7 µM) |
| Fc1ccc(C2=NN(c3ccccc3)C(c3ccc(F)cc3)C2)cc1 (stereo unspecified) | 22 mm | 20 mm | 21 mm | 23 mm | 51.2% | 40 µg/mL (≈ 120 µM) | 20 mm | 20 mm | 30 µg/mL (≈ 89.7 µM) | 40 µg/mL (≈ 120 µM) | 30 µg/mL (≈ 89.7 µM) | 30 µg/mL (≈ 89.7 µM) | 49.65% | 40 µg/mL (≈ 120 µM) |
| c1ccc(C2=NN(c3ccccc3)C(c3ccccc3)C2)cc1 (stereo unspecified) | 23 mm | 22 mm | 23 mm | 23 mm | 23.1% | 30 µg/mL (≈ 101 µM) | 23 mm | 21 mm | 40 µg/mL (≈ 134 µM) | 30 µg/mL (≈ 101 µM) | 40 µg/mL (≈ 134 µM) | 40 µg/mL (≈ 134 µM) | 57.8% | 30 µg/mL (≈ 101 µM) |
| c1ccc(-c2ccc(C3=NN(c4ccccc4)C(c4ccc(-c5ccccc5)cc4)C3)cc2)cc1 (stereo unspecified) | 23 mm | 22 mm | 23 mm | 21 mm | 18.2% | 30 µg/mL (≈ 66.6 µM) | 22 mm | 21 mm | 40 µg/mL (≈ 88.8 µM) | 40 µg/mL (≈ 88.8 µM) | 40 µg/mL (≈ 88.8 µM) | 30 µg/mL (≈ 66.6 µM) | 53.1% | 40 µg/mL (≈ 88.8 µM) |
| Cc1ccc(C2=NN(c3ccccc3)C(c3ccc(C)cc3)C2)cc1 (stereo unspecified) | 24 mm | 23 mm | 20 mm | 22 mm | 22.4% | 40 µg/mL (≈ 123 µM) | 24 mm | 22 mm | 20 µg/mL (≈ 61.3 µM) | 30 µg/mL (≈ 91.9 µM) | 30 µg/mL (≈ 91.9 µM) | 30 µg/mL (≈ 91.9 µM) | 58.16% | 40 µg/mL (≈ 123 µM) |
| OC(Cn1cncn1)(Cn1cncn1)c1ccc(F)cc1F [FLUCONAZOLE] |  |  |  |  |  |  | 24 mm | 23 mm |  |  |  |  |  |  |
